Assay results taken from ChEMBL document CHEMBL1148472, “Jatrophane diterpenes as modulators of multidrug resistance. Advances of structure-activity relationships and discovery of the potent lead pepluanin A” (J Med Chem, 2004).

Target: ATP-dependent translocase ABCB1 (Homo sapiens, UniProt P08183)
Experiment: TP_TRANSPORTER: cell accumulation of daunomycin in human K562/R7 leukemic cells
Format: functional, cell-based

ATP-dependent translocase ABCB1, sequence (P08183 whole entry): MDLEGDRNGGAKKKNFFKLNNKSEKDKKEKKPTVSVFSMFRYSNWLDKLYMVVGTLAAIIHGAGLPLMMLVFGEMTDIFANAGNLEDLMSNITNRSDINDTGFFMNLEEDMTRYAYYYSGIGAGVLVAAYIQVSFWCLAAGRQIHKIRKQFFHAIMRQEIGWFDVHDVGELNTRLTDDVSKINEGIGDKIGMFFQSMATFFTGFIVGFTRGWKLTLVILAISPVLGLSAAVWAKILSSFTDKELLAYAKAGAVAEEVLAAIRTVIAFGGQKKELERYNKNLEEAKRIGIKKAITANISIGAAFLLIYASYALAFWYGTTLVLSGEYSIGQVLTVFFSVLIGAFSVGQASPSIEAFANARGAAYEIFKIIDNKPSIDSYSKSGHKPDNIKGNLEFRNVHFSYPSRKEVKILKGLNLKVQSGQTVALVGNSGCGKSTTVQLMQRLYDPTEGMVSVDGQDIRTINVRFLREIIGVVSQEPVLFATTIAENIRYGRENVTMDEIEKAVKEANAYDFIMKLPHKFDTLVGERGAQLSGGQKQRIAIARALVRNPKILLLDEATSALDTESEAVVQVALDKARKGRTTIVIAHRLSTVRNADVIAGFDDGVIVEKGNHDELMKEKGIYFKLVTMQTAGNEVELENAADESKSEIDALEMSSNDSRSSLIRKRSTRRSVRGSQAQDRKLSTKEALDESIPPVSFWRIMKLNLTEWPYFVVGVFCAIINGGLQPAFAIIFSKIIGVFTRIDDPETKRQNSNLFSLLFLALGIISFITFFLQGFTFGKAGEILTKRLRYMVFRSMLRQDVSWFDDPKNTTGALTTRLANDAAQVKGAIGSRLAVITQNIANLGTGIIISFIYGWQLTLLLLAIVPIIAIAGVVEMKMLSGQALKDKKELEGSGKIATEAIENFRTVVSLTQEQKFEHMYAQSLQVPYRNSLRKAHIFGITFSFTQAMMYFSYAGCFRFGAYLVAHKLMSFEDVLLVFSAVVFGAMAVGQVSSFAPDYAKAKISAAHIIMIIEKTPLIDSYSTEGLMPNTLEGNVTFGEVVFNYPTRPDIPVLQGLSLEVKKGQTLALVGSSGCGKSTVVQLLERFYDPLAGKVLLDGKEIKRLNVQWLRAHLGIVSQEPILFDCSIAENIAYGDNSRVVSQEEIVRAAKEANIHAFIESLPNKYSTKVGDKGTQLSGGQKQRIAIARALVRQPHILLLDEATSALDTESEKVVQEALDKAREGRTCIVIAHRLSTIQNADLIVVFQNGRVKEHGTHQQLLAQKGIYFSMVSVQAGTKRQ

Activity: inhibitor [+]
Structure (SMILES): C=C1[C@@H](OC(C)=O)[C@@H](OC(C)=O)[C@@H](OC(=O)c2cccnc2)C(C)(C)/C=C/[C@H](C)[C@H](OC(C)=O)[C@@]2(O)C[C@@](C)(OC(C)=O)[C@H](OC(=O)c3ccccc3)[C@@H]2[C@H]1OC(C)=O [PEPLUANIN]
